For one test, the system named is guinea pig TGR5. Nature of the test: cAMP production increasing activity in guinea pig TGR5 expressing CHO cells. In kind it is cell-based. The following applies: test compound 2 μM; 10 μM lithocholic acid = 100%; average of 3 groups. The method, then:
(§1) The guinea pig type TGR5 expressing CHO cells were seeded in one 150 cm^2 flask at 1×10^7 cells, and cultured overnight at 37° C., 5% CO2. After culture, the cells were detached with 0.5 mM EDTA/PBS, washed with PBS, and suspended in Buffer 1 (HBSS+0.1% BSA, 25 mM HEPES pH 7.3, 0.5 mM IBMX) at a density of 1×10^7 cells/ml. The obtained cell suspension (460 μl), anti-cAMP acceptor beads (23 μl) of AlphaScreen cAMP assay kit (Perkin Elmer) and Buffer 1 (667 μl) were mixed and dispensed to a white 96 well plate (Costar) by 10 μl. Then, a test compound diluted with Buffer 1 was added to each well by 10 μl. At this time, one row of the plate was free of the cell suspension but added with anti-cAMP acceptor beads (9 μl) and Buffer 1 (441 μl) alone, and serial dilutions of cAMP were added instead of the test compound and used as the standard. A mixture of the cell suspension and the test compound contained in the plate was allowed to react at room temperature for 30 min. […] The plate was shaken at room temperature for 2.5 hrs and fluorescence intensity was measured by Fusion α (Parkin Elmer), and the cAMP concentration of each well was calculated using the cAMP standard on each plate.

The test system of test [1] is NCI-H716 cells. Nature of the test: intracellular cAMP production increasing action in NCI-H716 cells. Type of test: cell-based, human. The conditions noted are these: 2 hrs, production amount in TLCA (50 μM) was 100%, Base 11. The method, then: NCI-H716 (ATCC) was suspended in a medium (Dulbecco's Modified Eagle Medium (DMEM, Invitrogen) supplemented with 10% fetal bovine serum (Invitrogen), 100 U/ml penicillin and 100 μg/ml streptomycin), seeded in a 96 well plate, cultured for 2 days and used for cAMP production assay. As a cAMP assay buffer, modified Krebs-Ringer bicarbonate buffer (KRBH, 116 mM NaCl, 4.7 mM KCl, 1.2 mM KH2PO4, 1.2 MM MgSO4, 2.5 mM CaCl2, 25 mM NaHCO3, 24 mM HEPES pH 7.3), supplemented with glucose 5.5 mM, bovine serum albumin (BSA) 0.1%, and 3-isobutyl-1-methylxanthine (IBMX, Sigma) 1 mM, was used. The cells were washed once with cAMP assay buffer. Bile acids (50 μM) diluted with cAMP assay buffer or the compounds of the present invention (10 μM) were added thereto and the cells were incubated for 2 hrs. The culture supernatant was discarded, and the cAMP production amount was measured by cAMP Screen System (ABI). In the Table, Base means non-addition of a test compound.

In test [2] the target is T1, human TGR5 (Homo sapiens, UniProt Q8TDU6).
T1 construct: expressed in transfected cells; host or cells: CHO cells
T1 sequence (Q8TDU6 1-330): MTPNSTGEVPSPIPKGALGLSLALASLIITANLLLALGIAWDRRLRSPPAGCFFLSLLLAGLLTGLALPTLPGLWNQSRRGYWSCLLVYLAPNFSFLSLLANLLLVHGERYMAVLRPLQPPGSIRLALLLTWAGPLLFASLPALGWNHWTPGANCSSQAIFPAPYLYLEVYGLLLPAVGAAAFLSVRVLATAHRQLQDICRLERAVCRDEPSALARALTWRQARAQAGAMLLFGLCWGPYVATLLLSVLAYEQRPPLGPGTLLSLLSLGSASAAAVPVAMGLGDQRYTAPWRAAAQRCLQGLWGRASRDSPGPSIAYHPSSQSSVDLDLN
Nature of the test: cAMP production increasing activity in human TGR5 expressing CHO cells. The conditions noted are these: read-out: EC50 value (concentration necessary to make the cAMP production amount 50%). In kind it is cell-based.

The next test concerns the target T2, rat TGR5 (Rattus norvegicus, UniProt Q80T02).
T2 construct: expressed in transfected cells; host or cells: CHO cells
T2 sequence (Q80T02 1-329): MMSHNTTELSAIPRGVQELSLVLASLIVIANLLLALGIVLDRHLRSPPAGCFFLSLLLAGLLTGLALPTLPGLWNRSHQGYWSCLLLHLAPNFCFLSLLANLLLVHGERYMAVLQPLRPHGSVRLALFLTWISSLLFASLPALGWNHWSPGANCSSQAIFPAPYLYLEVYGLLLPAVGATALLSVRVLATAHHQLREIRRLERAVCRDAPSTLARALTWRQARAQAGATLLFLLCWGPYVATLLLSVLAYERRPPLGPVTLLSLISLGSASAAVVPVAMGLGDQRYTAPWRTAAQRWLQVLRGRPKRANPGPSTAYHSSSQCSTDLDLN
Nature of the test: cAMP production increasing activity in rat type TGR5 expressing CHO cells. The following applies: 0.5 h, read-out: cAMP producing activity (control %). In kind it is cell-based. On the procedure:
as §1, with “After” for “The guinea pig type TGR5 expressing CHO cells were seeded in one 150 cm^2 flask at 1×10^7 cells, and cultured overnight at 37° C., 5% CO2. After”

The test system of test [3] is NCI-H716 cells. Nature of the test: GLP-1 secretion from NCI-H716 cell line. The conditions noted are these: 2 hrs, secretion amount in Base was 100%. Type of test: cell-based, human. The method, then: NCI-H716 cells secrete Glucagon-like peptide-1 (GLP-1). GLP-1 is a peptide useful for controlling blood glucose level because it acts on the pancreas to cause secretion of insulin and the like. In the same manner as in Experimental Example 9, NCI-H716 (ATCC) was seeded in a 96 well plate and, after incubation for 2 days, used for the following secretion test. As a buffer for secretion test, modified Krebs-Ringer bicarbonate buffer (KRBH, 116 mM NaCl, 4.7 mM KCl, 1.2 mM KH2PO4, 1.2 mM MgSO4, 2.5 mM CaCl2, 25 mM NaHCO3, 24 mM HEPES, pH 7.3) supplemented with glucose 5.5 mM and BSA 0.1% was used. The cells were washed once with the buffer for secretion test, preincubated at 37° C. under 5% CO2, bile acid diluted with the buffer for secretion test was added and the cells were cultured at 37° C. under 5% CO2 for 2 hrs. The cell culture supernatant was collected, cryopreserved and the GLP-1 content in the supernatant was measured using a GLP-1 measurement EIA kit (Linco) The results are shown in Table 9. In the Table, Base means non-addition of a test compound.

The next test has as its system THP-TGR5 cells. Nature of the test: suppression of LPS induced TNF α secretion in THP-TGR5 cells. In kind it is cell-based, human. The conditions noted are these: non-addition: 11 with LPS, 2.7 without LPS. The method, then:
TGR5 high expression cells were established by introducing TGR5 gene into human macrophage cells line THP-1. According to a conventional method, pcDNA-TGR5 incorporating cDNA of human TGR5 in pcDNA3.1 (Invitrogen) was prepared. Then, THP-1 was cultured in a medium (RPMI1640 10% FBS), and pcDNA-TGR5 was introduced thereinto using lipofectamine (Gibco BRL) according to conventional methods. Thereafter, G418 (Gibco BRL) was added to the medium to select resistant strains, and cells line, THP-TGR5 that expresses TGR5 stably and highly was established.
THP-TGR5 thus obtained was diluted to a concentration of 1×10^5/well and cultured overnight in a 96 well plate in the presence of 10^−8M phorbol ester (Wako Pure Chemical Industries, Ltd.). THP-TGR5 after culture was cultured for 1 hr in a medium containing a test compound or a control medium (0.1 ml) free of a test compound, 0.1 ml of a medium containing the same concentration of the test compound or a control medium free of the test compound, each of which containing LPS for induction of TNF α secretion was added (concentration at the time of addition 50 ng/ml) and the mixture was incubated at 37° C. under 5% CO2 for 14 hrs. The culture supernatant was collected and the TNF α content was measured with the growth suppressing effect on the TNF sensitive cell line L929 (RIKEN Institute) as an index.
L929 cells were seeded in a 96 well plate at 1.2×10^4/well and incubated overnight at 37° C. under 5% CO2. The obtained culture product was cultured overnight in a medium (phenol red free Dulbecco's Modified Eagle Medium (Invitrogen) supplemented with 10% fetal bovine serum (Invitrogen), 100 U/ml penicillin and 100 μg/ml streptomycin), which contained the aforementioned THP-TGR5-containing culture supernatant and 2 μg/ml Actinomycin D (Wako Pure Chemical Industries, Ltd.). The TNF α content was determined by measuring the growth of the L929 cells in the obtained culture product using a Cell Counting Kit-8 (Wako Pure Chemical Industries, Ltd.). As the standard sample, human recombinant TNF α (Genzyme) was used.

Test [4] has as its target T1, human TGR5. Nature of the test: cAMP production increasing activity in human TGR5 expressing CHO cells. In kind it is cell-based. The conditions noted are these: test compound 1 μM, 30 min; 1 μM lithocholic acid = 100%, no addition = 0%; average of 3 groups. The method, then: As the assay buffer, Hank's balanced salt solution (HBSS, Invitrogen) supplemented with 0.1% bovine serum albumin (BSA, Sigma) and 0.5 mM 3-isobutyl-1-methylxanthine (IBMX, Sigma) was used. A test compound sample (1 μM) diluted with the assay buffer was added to the cells. The cells were incubated at 37° C. for 30 min. and the supernatant was suctioned. The intracellular cAMP amount increased by the stimulation of the test compound was quantitatively determined using a HitHunter™ EFC Cyclic AMP Chemiluminescence Assay Kit (ABI) kit.

In test [5] the test system is mock CHO cells free of human TGR5 expression. Nature of the test: cAMP production increasing activity in mock CHO cells free of human TGR5 expression. Type of test: cell-based. The following applies: average of 3 groups. The method, then: As the assay buffer, Hank's balanced salt solution (HBSS, Invitrogen) supplemented with 0.1% bovine serum albumin (BSA, Sigma) and 0.2 mM 3-isobutyl-1-methylxanthine (IBMX, Sigma) was used. The cells were washed twice with the assay buffer and preincubated at 37° C. for 30 min. The cells were washed twice, and test compound samples (10 μM) diluted with the assay buffer to various concentrations were added. The cells were incubated at 37° C. for 20 min. The culture supernatant was discarded, and the cAMP production amount was measured using a cAMP Screen System (ABI).

Bounds are passed on as bounds.

Take `COC(=O)NCc1cccc(C2OC(CC(=O)NCc3ccccc3F)C(=O)N(CC(C)(C)COC(C)=O)c3ccc(Cl)cc32)c1` (stereo not drawn) [Example 46, 3-[3,5-trans-7-chloro-3-[2-[(2-fluorobenzyl)amino]-2-oxoethyl]-5-[3-(methoxycarbonylaminomethyl)phenyl]-2-oxo-2,3-dihydro-4,1-benzoxazepin-1(5H)-yl]-2,2-dimethylpropyl acetate]: the “cAMP producing activity (control %)” value with guinea pig TGR5 is on record as 77 control %. The “cAMP production increasing activity (%)” value in the test with NCI-H716 cells [1] (10 μM) is 112%. Besides, on human TGR5 [2], the EC50 was less than 100 nM. For the same compound, at rat TGR5, the activation at 2 µM turned out to be 104%. Besides, the “GLP-1 secretion increase (%)” value with NCI-H716 cells [3] (5 μM) was determined as 165%.
As to `C[C@H](CCC(=O)O)[C@H]1CC[C@H]2[C@@H]3CC[C@@H]4C[C@H](O)CC[C@]4(C)[C@H]3CC[C@]12C` [lithocholic acid, reference compound], in the test on NCI-H716 cells [1] (bile acid 50 μM), the “cAMP production increasing activity (%)” value stood at 107%. For the same compound, the “TNF α” value in the test on THP-TGR5 cells (bile acid 50 μM) amounted to 1.1 ng/mL. Moreover, the “GLP-1 secretion increase (%)” value in the test with NCI-H716 cells [3] (bile acid 25 μM) came out at 121%.
In the case of `CCOC(=O)CC1C(=O)N(CC(C)(C)C)c2ccccc2CN1C(=O)OC(C)(C)C` (stereo not shown) [Reference Example 1B, tert-butyl 3-(2-ethoxy-2-oxoethyl)-1-neopentyl-2-oxo-1,2,3,5-tetrahydro-4H-1,4-benzodiazepine-4-carboxylate], the “TNF α” value in the test with THP-TGR5 cells (test compound 10 μM) turned out to be 0.63 ng/mL.
In the case of `COC(=O)NCc1cccc([C@@H]2O[C@H](CC(=O)NCc3ccccc3F)C(=O)N(CC(C)(C)C)c3ccc(Cl)cc32)c1` (relative stereo) [Reference Example 6, methyl [3-[3,5-trans-7-chloro-3-[2-[(2-fluorobenzyl)amino]-2-oxoethyl]-1-neopentyl-2-oxo-1,2,3,5-tetrahydro-4,1-benzoxazepin-5-yl]benzyl]carbamate], on human TGR5 [4], the “cAMP production increasing activity (control %)” value stood at 98 control %. Also, the “TNF α” value with THP-TGR5 cells (test compound 10 μM) is 0.32 ng/mL.
The corresponding values for `CC(=O)NCc1cccc([C@@H]2O[C@H](CC(=O)NCc3ccccc3F)C(=O)N(CC(C)(C)C)c3ccc(Cl)cc32)c1` (relative stereo) [Reference Example 3, 2-[3,5-trans-5-[3-(acetylaminomethyl)phenyl]-7-chloro-1-neopentyl-2-oxo-1,2,3,5-tetrahydro-4,1-benzoxazepin-3-yl]-N-(2-fluorobenzyl)acetamide] are 85 control % and 0.33 ng/mL.
On to `C=C[C@@]1(C)CC(=O)[C@]2(O)[C@@]3(C)[C@@H](O)CCC(C)(C)[C@@H]3[C@H](O)[C@H](OC(C)=O)[C@@]2(C)O1` [Forskolin, reference compound], for which the “cAMP production increasing activity” value in test [5] (Experimental Example 2, Forskolin 2 μM, Base 0.85) came to 4.02 pmol; in test [5] (Experimental Example 4, test compounds 2 μM, Base 0.28) it was 5.68 pmol; in test [5] (Experimental Example 5, test compounds 2 μM, Base 0.19), 3.01 pmol.

The values above are taken from patent US7625887B2, “Receptor agonists” (Takeda Pharmaceutical Company Limited, priority 2003, dated 2009).
